Results reported in patent US5114958A, “1,2,4-oxadiazole and 1,2,4-thiadiazole derivatives of fenamates as antiinflammatory agents” (Warner-Lambert Company, priority 1991, dated 1992).
Read-outs that look alike come from different tables or passages of the source.

What was measured:
5-lipoxygenase = target: T1, 5-lipoxygenase (Rattus norvegicus, UniProt P12527); assay: ARBL whole cell 5-lipoxygenase assay (LTB4 formation in RBL-1 cells, A23187-stimulated); format: cell-based; conditions: RBL-1 whole cells; for IC50: inhibition of LTB4 formation
T1 construct: host or cells: RBL-1
T1 sequence (P12527 1-673): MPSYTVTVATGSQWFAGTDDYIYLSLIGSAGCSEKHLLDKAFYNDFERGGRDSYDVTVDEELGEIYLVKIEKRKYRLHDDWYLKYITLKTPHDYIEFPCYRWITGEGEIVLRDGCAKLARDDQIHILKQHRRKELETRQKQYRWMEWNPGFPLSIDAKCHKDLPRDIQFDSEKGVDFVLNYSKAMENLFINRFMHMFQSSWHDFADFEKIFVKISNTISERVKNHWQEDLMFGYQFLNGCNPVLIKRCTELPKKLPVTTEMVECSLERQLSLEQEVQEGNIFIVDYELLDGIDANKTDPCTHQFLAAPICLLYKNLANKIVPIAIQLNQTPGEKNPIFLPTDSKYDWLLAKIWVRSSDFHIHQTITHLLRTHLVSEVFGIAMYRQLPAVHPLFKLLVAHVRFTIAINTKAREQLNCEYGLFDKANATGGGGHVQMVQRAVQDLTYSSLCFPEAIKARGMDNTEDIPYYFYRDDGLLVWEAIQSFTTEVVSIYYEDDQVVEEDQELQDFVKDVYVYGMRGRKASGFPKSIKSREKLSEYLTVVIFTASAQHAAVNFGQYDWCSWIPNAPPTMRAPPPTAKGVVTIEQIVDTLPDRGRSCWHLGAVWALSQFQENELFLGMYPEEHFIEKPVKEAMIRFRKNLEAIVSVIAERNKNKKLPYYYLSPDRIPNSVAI
Protocol: (§1) ARBL/ARBC Whole cell 5-lipoxygenase and Cyclooxygenase Aasays
(§2) The rat basophilic leukemia cell line (RBL-1) was obtained from the American Type Culture Collection (Rockville, Md.).
(§3) Radioimmunoassay (RIA) kits of LTB4 and PGF2α were obtained from Amersham (Arlington Heights, Ill.) and Seragen (Boston, Mass.), respectively.
(§4) RBL-1 cells are grown in suspension culture in Eagle's minimum essential medium supplemented with 12% fetal bovine serum at 37° C. in an incubator supplied with air-5% carbon dioxide. Cells are harvested by centrifugation. They are washed with cold phosphate buffered saline pH 7.4 (PBS; NaCl, 7.1 g; Na2 HPO4, 1.15 g; KH2 PO4, 0.2 g; and KCl, 0.2 g/L). Cells are finally suspended in PBS containing 1.0 mM calcium at a density of 2×10^6 cells/mL. Cells are incubated with and without test agent (in DMSO) (1% DMSO is without effect on arachidonic acid metabolism) for 10 minutes at room temperature. Calcium ionophore A23187 (5 μM) is added and cells are incubated for 7 minutes at 37° C. The reaction is stopped by chilling the tubes on ice for 10 minutes. Cells are separated by centrifugation and the supernatant is stored at -20° C. Aliquots (100 μL) are analyzed for LTB4 and PGF2α using radioimmunoassay kits as provided by the supplier.
(§5) Table 1 contains biochemical data obtained from this whole cell assay as IC5 s which are calculated as the amount of test compound causing 50% inhibition of LTB4 or PGF2α formation and the results of the CFE-2 assay.

Cyclooxygenase = target: T2, Cyclooxygenase (Rattus norvegicus, UniProt Q63921); assay: ARBC whole cell cyclooxygenase assay (PGF2α formation in RBL-1 cells, A23187-stimulated); format: cell-based; conditions: RBL-1 whole cells; for IC50: inhibition of PGF2α formation; for inhibition at 10 µM: read-out: ARBC % inhibition of PGF2α at 10 μM (class symbol)
T2 construct: host or cells: RBL-1
T2 sequence (Q63921 27-602): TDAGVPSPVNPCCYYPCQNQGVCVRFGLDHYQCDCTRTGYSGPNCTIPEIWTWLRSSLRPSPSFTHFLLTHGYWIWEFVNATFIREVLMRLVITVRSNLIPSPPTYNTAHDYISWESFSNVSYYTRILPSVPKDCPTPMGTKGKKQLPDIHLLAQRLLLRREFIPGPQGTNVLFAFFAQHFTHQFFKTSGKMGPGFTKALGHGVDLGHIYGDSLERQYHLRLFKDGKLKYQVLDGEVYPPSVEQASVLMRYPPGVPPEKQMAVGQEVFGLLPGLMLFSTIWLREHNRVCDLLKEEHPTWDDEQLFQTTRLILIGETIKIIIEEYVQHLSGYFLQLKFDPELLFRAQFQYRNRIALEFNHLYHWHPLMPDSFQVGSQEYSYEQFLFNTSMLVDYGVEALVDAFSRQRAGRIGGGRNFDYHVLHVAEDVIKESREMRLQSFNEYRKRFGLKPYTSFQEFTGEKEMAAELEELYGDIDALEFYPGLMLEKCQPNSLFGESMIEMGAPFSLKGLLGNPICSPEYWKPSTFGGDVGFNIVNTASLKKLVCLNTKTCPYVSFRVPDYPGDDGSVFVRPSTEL
Protocol: as §1, §2, §3, §4, §5

[1] = Carrageenan-Induced Rat Foot Paw Edema-2 (CFE-2) Assay; format: in vivo; conditions: dosed 1 hour before carrageenan, edema measured 5 hours after carrageenan
Protocol: Carrageenan-Induced Rat Foot Paw Edema-2 (CFE-2) Assay:Protocol
Carrageenan solution (1% w/v) is prepared by dissolving 100 mg carrageenan (Marine Colloidal Div., Springfield, N.J.) in 10 mL of sterile saline (0.9%) solution (Travenol). The solution is vortexed for 30 to 45 minutes. Animals are dosed with compound 1 hour before carrageenan challenge. Foot paw edema is induced by injecting 0.10 mL of the 1% carrageenan subcutaneously into the plantar portion of the right hind paw of each rat under light anesthesia. Initial foot paw volume is measured immediately following carrageenan challenge using mercury plethysmography (Buxco Electronics). Edema is measured 5 hours after carrageenan. The difference between the 5-hour and the initial paw volume is expressed as delta edema. The delta edema for each test group of animals is used to calculate the percent inhibition of edema achieved by the compound at the test dose compared with the vehicle control group. The ID40 (the dose at which swelling is inhibited by 40%) is calculated by probit analysis for the dose at which 40% inhibition occurs.
as §5

Row | IC50 (5-lipoxygenase) | IC50 (Cyclooxygenase) | inhibition at 10 µM (5-lipoxygenase; read-out: ARBL % inhibition of LTB4 at 10 μM) | inhibition at 10 µM (Cyclooxygenase) | inhibition at 10 µM (5-lipoxygenase; read-out: ARBL % inhibition of LTB4 at 10 μM (class symbol)) | Compound | CFE Percent inhibition at 30 mg/kg [1]
1 | 6150 nM | 1230 nM |  |  |  | Cc1ccc(Cl)c(Nc2ccccc2-c2nsc(NC#N)n2)c1Cl [Example 4, 3-[2-[(2,6-Dichloro-3-methylphenyl)amino]phenyl]-1,2,4-thiadiazol-5-yl-cyanamide] | 
2 |  |  | 100% | < 40% |  | Cc1ccc(Cl)c(Nc2ccccc2-c2nsc(N=C(N)N)n2)c1Cl [Example 3, 3-[2-[(2,6-dichloro-3-methylphenyl)amino]phenyl]-1,2,4-thiadiazol-5-yl-guanidine] | 
3 | 2300 nM | 13 nM |  |  |  | Cc1ccc(Cl)c(Nc2ccccc2-c2noc(=O)[nH]2)c1Cl [Example 1, 3-[2-[(2,6-dichloro-3-methylphenyl)amino]phenyl]-1,2,4-oxadiazol-5(4H)-one] | 58%
4 |  |  |  | < 40% | < 40% | Cc1ccc(S(=O)(=O)c2nc(-c3ccccc3Nc3c(Cl)ccc(C)c3Cl)ns2)cc1 [Example 2, 2,6-Dichloro-3-methyl-N-[2-[5-[(4-methylphenyl)-sulfonyl]-1,2,4-thiadiazol-3-yl]phenyl]benzenamine] | 
